In patent publication US20230064490A1, “FLUORESCENT PROTEIN BIOSENSOR FOR DETECTION OF KINASE ACTIVITY” (Lucidicor Inc., priority 2018, published 2023):

Test system: PKA
Experiment: PKA-PhosFluor fluorescence in transfected HEK-293 cells treated with drug
Format: cell-based, human
Conditions: HEK-293 cells transfected with PKA-PhosFluor; excitation 488 nm, emission 530 nm; 6 hr after addition of drug
Protocol: PKA-PhosFluor and cat_PKA are transcribed from different plasmids maintained by separate antibiotic resistance genes. FIG. 2C and FIG. 2D show charcoal agar plates streaked with E. coli containing the two plasmids indicated in B. The control plate lacks IPTG (FIG. 2C) while the IPTG plate was treated with 1 mM IPTG for 24 hours (FIG. 2D). […] Graphs depict % fluorescence change (excitation 488 nm; emission 530 nm) measured using a microplate reader 6 hr after addition of the indicated drug. Error bars indicate ±SEM (n=6). FIG. 2F is a schematic diagram showing mechanism of action for each drug.
Next, the ability of PKA-PhosFluor to monitor PKA activity in mammalian cells was examined. PKA activity is regulated by the level of cAMP, which itself, is regulated by other signaling pathways and cell growth (Uhler et al., 1986). […] All the drugs used have widely varying mechanisms of action (FIG. 2F).

Row | Structure (SMILES) | fluorescence of PKA-PhosFluor (% fluorescence change)
1 | CCCCCCOC(=O)[C@]1(O)C[C@@H]2O[C@@]1(C)n1c3ccccc3c3c4c(c5c6ccccc6n2c5c31)C(=O)NC4 [KT-5720] | reduced fluorescence
2 | O=S(=O)(NCCNC/C=C/c1ccc(Br)cc1)c1cccc2cnccc12 [H89] | reduced fluorescence
3 | Nc1ncnc2c1nc(Br)n2[C@@H]1O[C@@H]2COP(=O)(O)O[C@H]2[C@H]1O [br-cAMP] | induced fluorescence
4 | CC(C)Cn1c(=O)n(C)c(=O)c2[nH]cnc21 [IBMX] | induced fluorescence
5 | Nc1ncnc2c1ncn2[C@@H]1O[C@@H]2COP(O)(=S)O[C@H]2[C@H]1O (some centres unmarked) [Rp-cAMP] | reduced fluorescence
